Key:
PARP1 = molecular target: T1, PARP1 (Homo sapiens, UniProt P09874); experiment: Biochemical fluorescent polarization (FP) assay, displacement of PARPi-FL, PARP1; type: binding; conditions: 20 nM protein, 3 nM PARPi-FL, 4 h at room temperature; read-out: FP PARP1 pIC50 (converted)
T1 construct: made in house
Method: (§1) Compounds were characterized using an assay measuring the displacement of a commercially available fluorescently labeled PARP 1/2 inhibitor (PARPi-FL, Tocris Biosciences, #6461) as exemplified in assays performed in WO2014/064149 and WO2021/013735A1. The assay was performed utilizing the following method: Compounds were dissolved in DMSO an Echo550 liquid handler was utilized to make serial dilations in the desired concentration range in Optiplate-384F plates. 100% DMSO was used for the high (with protein) and low (without protein) control samples. 20 nL of compound or DMSO alone was added to individual assay plate wells. PARP1 and PARP2 protein were expressed, purified, and diluted in assay buffer containing 50 mM Tris pH 8.0, 0.001% Triton X-100, 10 mM MgCl2, 150 mM NaCl to a final concentration of 20 nM. The PARPi-FL was then added at a final concentration of 3 nM. The assay plate was centrifuged at 1000 rpm for 1 min and incubated for 4 h at room temperature. […] [formula]

PARP2 = molecular target: T2, PARP2 (Homo sapiens, UniProt Q9UGN5); experiment: Biochemical fluorescent polarization (FP) assay, displacement of PARPi-FL, PARP2; type: binding; conditions: 20 nM protein, 3 nM PARPi-FL, 4 h at room temperature; read-out: FP PARP2 pIC50 (converted)
T2 construct: made in house
T2 sequence (Q9UGN5 whole entry): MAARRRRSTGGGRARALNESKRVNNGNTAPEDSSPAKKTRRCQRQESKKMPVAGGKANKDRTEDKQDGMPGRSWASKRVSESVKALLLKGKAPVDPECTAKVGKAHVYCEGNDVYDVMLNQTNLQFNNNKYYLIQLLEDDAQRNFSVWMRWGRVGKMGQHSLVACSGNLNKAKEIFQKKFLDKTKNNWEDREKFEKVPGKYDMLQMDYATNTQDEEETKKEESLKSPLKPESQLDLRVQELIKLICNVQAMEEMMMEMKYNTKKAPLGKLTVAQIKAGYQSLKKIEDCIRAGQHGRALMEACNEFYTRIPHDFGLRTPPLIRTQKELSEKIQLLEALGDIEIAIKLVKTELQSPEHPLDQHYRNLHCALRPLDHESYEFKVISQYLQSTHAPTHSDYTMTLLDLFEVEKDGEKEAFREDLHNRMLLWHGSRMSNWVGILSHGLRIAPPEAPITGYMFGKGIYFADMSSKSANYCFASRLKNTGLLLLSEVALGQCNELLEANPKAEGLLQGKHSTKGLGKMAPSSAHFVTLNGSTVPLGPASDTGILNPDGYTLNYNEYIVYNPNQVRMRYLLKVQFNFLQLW
Method: as §1

DLD-1 BRCA2(−/−) cells = experiment: Cell growth inhibition assay (CellTiter-Glo), DLD-1 BRCA2(−/−); type: cell-based; conditions: 200 cells/well, 7 days, CellTiter Glo 2.0; for EC50: Homo sapiens, DLD-1, 168 h, read-out: DLD-1 BRCA2(−/−) pEC50 (converted)
Method: (§2) Cell proliferation was measured through the cell viability assay using DLD-1 BRCA2(−/−) and parental isogenic pair and MDA-MB-436 (mutated BRCA1) cell lines. The CellTiter-Glo (CTG) based cell viability assay is designed to determine the number of viable cells in the culture because of compound effect, by quantifying ATP, which indicates the presence of metabolically active cells.
(§3) DLD-1 BRCA2(−/−) and parental isogenic pair were cultured in RPMI 1640 supplemented with […] (FBS), and […] cells were cultured in DMEM supplemented with 10% FBS. Both were cultured at 37° C. with […]. Invention compounds were distributed to the 384 well plate (Corning, 3764) using Echo acoustic liquid handler to form a 1:3 serially diluted final concentration with top dose of 10 or 30 μM. The cells were seeded into the plate in the density of 50 cells/well (DLD-1 parental), 200 cells/well (DLD-1 BRCA2−/−), or 500 cells/well (MDA-MB-436). After a short spun, the cells were cultured in a well moisturized incubator at 37° C. with 5% CO2 for 7 days without disturbance. The cell viability was measured by CellTiter Glo 2.0 assay kit (Promega, G9243), and growth inhibition rate was calculated and plotted against final compound concentration, and the data were fitted in Xfit to generate IC50 values.

DLD-1 parental cells = experiment: Cell growth inhibition assay (CellTiter-Glo), DLD-1 parental; type: cell-based; conditions: Homo sapiens, DLD-1, 168 h; 50 cells/well, 7 days, CellTiter Glo 2.0; read-out: DLD-1 parental pEC50 (converted)
Method: as §2, §3

[1] = tested on: MDA-MB-436 (mutated BRCA1) cells; experiment: Cell growth inhibition assay (CellTiter-Glo), MDA-MB-436; type: cell-based; conditions: 500 cells/well, 7 days, CellTiter Glo 2.0; for EC50: Homo sapiens, MDA-MB-436, 168 h, read-out: MDA-MB-436 pEC50 (converted)
Method: as §2, §3

T1 sequence (P09874 whole entry): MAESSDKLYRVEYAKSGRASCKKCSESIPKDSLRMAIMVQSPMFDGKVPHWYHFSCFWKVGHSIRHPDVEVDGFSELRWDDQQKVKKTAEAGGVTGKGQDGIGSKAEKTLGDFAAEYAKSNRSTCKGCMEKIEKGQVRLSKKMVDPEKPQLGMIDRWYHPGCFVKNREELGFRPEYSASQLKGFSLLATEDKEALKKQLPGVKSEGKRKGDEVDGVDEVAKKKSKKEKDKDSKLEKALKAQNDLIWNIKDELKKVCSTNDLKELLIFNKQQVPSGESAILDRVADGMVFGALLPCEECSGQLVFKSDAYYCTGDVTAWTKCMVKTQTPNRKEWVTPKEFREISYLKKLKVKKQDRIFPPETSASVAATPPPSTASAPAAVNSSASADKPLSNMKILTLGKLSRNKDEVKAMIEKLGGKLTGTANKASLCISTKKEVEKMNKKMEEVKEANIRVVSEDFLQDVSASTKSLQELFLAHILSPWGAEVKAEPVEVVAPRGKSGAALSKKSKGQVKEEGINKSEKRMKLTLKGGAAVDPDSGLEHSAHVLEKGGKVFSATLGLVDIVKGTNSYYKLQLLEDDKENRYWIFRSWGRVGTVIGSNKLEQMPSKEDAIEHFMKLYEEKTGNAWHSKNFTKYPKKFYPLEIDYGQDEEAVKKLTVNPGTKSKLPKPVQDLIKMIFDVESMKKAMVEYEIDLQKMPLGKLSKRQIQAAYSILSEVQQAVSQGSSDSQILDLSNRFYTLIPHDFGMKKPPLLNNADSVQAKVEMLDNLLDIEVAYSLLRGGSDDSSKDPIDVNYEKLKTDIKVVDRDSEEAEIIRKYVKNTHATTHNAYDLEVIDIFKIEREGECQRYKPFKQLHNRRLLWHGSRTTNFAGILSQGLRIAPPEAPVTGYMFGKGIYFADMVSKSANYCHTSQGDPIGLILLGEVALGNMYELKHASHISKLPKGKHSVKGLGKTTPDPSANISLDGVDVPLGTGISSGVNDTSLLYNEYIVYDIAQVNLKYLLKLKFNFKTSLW

## Cc1cc2ncc(CN3CCN(c4ccc(C#N)cn4)CC3)cc2[nH]c1=O [Example 6]
PARP1
  IC50: 5.01 nM
PARP2
  IC50: 5010 nM
DLD-1 BRCA2(−/−) cells
  EC50: 2.51 nM
DLD-1 parental cells
  EC50: > 31600 nM
[1]
  EC50: 2.51 nM

## CCc1cc2ncc(CN3CCN(c4ccc(C#N)nc4)CC3)cc2[nH]c1=O [Example 3, 5-{4-[(7-ethyl-6-oxo-5H-1,5-naphthyridin-3-yl)methyl]piperazin-1-yl}pyridine-2-carbonitrile]
DLD-1 BRCA2(−/−) cells
  EC50: 3.16 nM
DLD-1 parental cells
  EC50: > 31600 nM
[1]
  EC50: 2.51 nM

## N#Cc1ccc(N2CCN(Cc3cnc4cc(C5CCCO5)c(=O)[nH]c4c3)CC2)nc1 (single isomer, unassigned) [Example 69, 6-(4-{[6-oxo-7-(oxolan-2-yl)-5H-1,5-naphthyridin-3-yl]methyl}piperazin-1-yl)pyridine-3-carbonitrile]
PARP1
  IC50: 10 nM
PARP2
  IC50: 39800 nM
DLD-1 BRCA2(−/−) cells
  DLD-1 BRCA2(−/−) pEC50: 7.4
[1]
  MDA-MB-436 pEC50: 7.8

## CCc1cc2ncc(CN3CCN(c4ccc(F)cc4C#N)CC3)cc2[nH]c1=O [Example 40]
PARP1
  IC50: 6.31 nM
PARP2
  IC50: 12600 nM
DLD-1 BRCA2(−/−) cells
  EC50: 1 nM
[1]
  EC50: 0.794 nM

## Cc1cc2c(F)cc(CN3CCN(c4ccc(C#N)cn4)CC3)cc2[nH]c1=O [Example 79]
PARP1
  IC50: 10 nM
PARP2
  IC50: 12600 nM
DLD-1 BRCA2(−/−) cells
  EC50: 7.94 nM
[1]
  EC50: 5.01 nM

## Cc1c(Cl)c(=O)[nH]c2cc(CN3CCN(c4ccc(C#N)cn4)CC3)cnc12 [Example 36, 6-{4-[(7-chloro-8-methyl-6-oxo-5H-1,5-naphthyridin-3-yl)methyl]piperazin-1-yl}pyridine-3-carbonitrile]
PARP1
  IC50: 5.01 nM
PARP2
  IC50: 2000 nM
DLD-1 BRCA2(−/−) cells
  EC50: 1.26 nM
[1]
  EC50: 1 nM

## Cc1cc2ncc(CN3CCN(c4ncc(F)cc4F)CC3)cc2[nH]c1=O [Example 26]
PARP1
  IC50: > 100 nM
PARP2
  IC50: > 100000 nM
DLD-1 BRCA2(−/−) cells
  EC50: > 1000 nM
[1]
  EC50: > 1000 nM

## CCc1cc2ncc(CN3CCN(c4ccc(C#N)cc4C#N)CC3)cc2[nH]c1=O [Example 52]
PARP1
  IC50: 25.1 nM
PARP2
  IC50: 12600 nM
DLD-1 BRCA2(−/−) cells
  EC50: 0.794 nM
[1]
  EC50: 0.631 nM

## N#Cc1ccc(N2CCN(Cc3cnc4cc(Cl)c(=O)[nH]c4c3)CC2)c(Cl)n1 [Example 77]
PARP1
  IC50: 6.31 nM
PARP2
  IC50: > 100000 nM
DLD-1 BRCA2(−/−) cells
  EC50: 0.794 nM
[1]
  EC50: 0.794 nM

## CCc1cc2ncc(CN3CCN(c4ccc(C#N)cc4)CC3)cc2[nH]c1=O [Example 9]
PARP1
  IC50: 6.31 nM
PARP2
  IC50: 1580 nM
DLD-1 BRCA2(−/−) cells
  EC50: 0.501 nM
[1]
  EC50: 0.501 nM

## Cc1cc2ncc(CN3CCN(c4cc(F)c(C#N)cc4F)CC3)cc2[nH]c1=O [Example 13]
PARP1
  IC50: 5.01 nM
PARP2
  IC50: > 100000 nM
DLD-1 BRCA2(−/−) cells
  EC50: 5.01 nM
[1]
  EC50: 3.98 nM

## Cc1cc2ncc(CN3CCN(c4ccc(C#N)nc4F)CC3)cc2[nH]c1=O [Example 78]
PARP1
  IC50: 6.31 nM
PARP2
  IC50: > 100000 nM
DLD-1 BRCA2(−/−) cells
  EC50: 3.98 nM
[1]
  EC50: 3.16 nM

## CCc1cc2ncc(CN3CCN(c4ccc(Cl)cn4)CC3)cc2[nH]c1=O [Example 8]
PARP1
  IC50: 15.8 nM
PARP2
  IC50: > 100000 nM
DLD-1 BRCA2(−/−) cells
  EC50: 5.01 nM
[1]
  EC50: 3.16 nM

## Cc1cc2ncc(CN3CCN(c4ccc(C#N)nc4)CC3)cc2[nH]c1=O [Example 11]
PARP1
  IC50: 10 nM
PARP2
  IC50: 79400 nM
DLD-1 BRCA2(−/−) cells
  EC50: 20 nM
[1]
  EC50: 39.8 nM

## CCc1cc2ncc(CN3CCN(c4ccc(C#N)cn4)[C@H](C)C3)cc2[nH]c1=O [Example 21]
PARP1
  IC50: 5.01 nM
PARP2
  IC50: 1260 nM
DLD-1 BRCA2(−/−) cells
  EC50: 7.94 nM
[1]
  EC50: 12.6 nM

## [2H]C([2H])(c1cnc2cc(CC)c(=O)[nH]c2c1)N1CCN(c2ccc(F)cc2C#N)CC1 [Example 67]
PARP1
  IC50: 15.8 nM
PARP2
  IC50: 25100 nM
DLD-1 BRCA2(−/−) cells
  EC50: 1.58 nM
[1]
  EC50: 1.58 nM

## N#Cc1ccc(N2CCN(Cc3cnc4cc(C(F)F)c(=O)[nH]c4c3)CC2)cc1 [Example 59]
PARP1
  IC50: 6.31 nM
PARP2
  IC50: > 100000 nM
DLD-1 BRCA2(−/−) cells
  EC50: 1.26 nM
[1]
  EC50: 1 nM

## N#Cc1ccc(N2CCN(Cc3cnc4cc(Cl)c(=O)[nH]c4c3)CC2)nc1 [Example 57]
PARP1
  IC50: 5.01 nM
PARP2
  IC50: 50100 nM
DLD-1 BRCA2(−/−) cells
  EC50: 2.51 nM
DLD-1 parental cells
  EC50: 20000 nM
[1]
  EC50: 2 nM

— patent US12384780B2, “PARP1 inhibitors and uses thereof” (XinThera, Inc., priority 2022, dated 2025)
